In the CheMixHub drug solubility set:

Assay: xn = mol fraction of the nth substance listed, in the solute-free solvent

CN1CCN(C2=Nc3cc(Cl)ccc3Nc3ccccc32)CC1 + ClCCCl + Cc1ccccc1
solubility (g/100 g solution)
Details | x2 = 0.09454 | x2 = 0.1907 | x2 = 0.2875 | x2 = 0.3851 | x2 = 0.4844 | x2 = 0.5848 | x2 = 0.6866 | x2 = 0.79 | x2 = 0.8945
293.15 K | 2.42 | 2.81 | 3.04 | 3.48 | 3.87 | 4.26 | 4.74 | 5.15 | 5.47
298.15 K | 2.8 | 3.04 | 3.49 | 3.86 | 4.38 | 4.96 | 5.44 | 5.92 | 6.3
303.15 K | 3.12 | 3.63 | 3.88 | 4.47 | 5.03 | 5.87 | 6.44 | 6.95 | 7.31
308.15 K | 3.94 | 4.47 | 4.94 | 5.58 | 6.12 | 6.82 | 7.42 | 8.2 | 8.68
313.15 K | 4.7 | 5.37 | 5.95 | 6.67 | 7.33 | 8.06 | 8.85 | 9.38 | 9.62
318.15 K | 5.75 | 6.09 | 6.93 | 7.46 | 8.32 | 9.3 | 9.75 | 10.8 | 11.5
323.15 K | 7.24 | 7.72 | 8.87 | 9.82 | 10.7 | 11.6 | 12.3 | 13.2 | 13.6

Nc1nccnc1Cl + CC(C)O + O
solubility (g/100 g solution)
Details | 278.15 K | 283.15 K | 288.15 K | 293.15 K | 298.15 K | 303.15 K | 308.15 K | 313.15 K | 318.15 K | 323.15 K
x2 = 0.03225 | 0.0425 | 0.0564 | 0.0738 | 0.092 | 0.112 | 0.133 | 0.154 | 0.178 | 0.201 | 0.227
x2 = 0.06974 | 0.0786 | 0.103 | 0.134 | 0.166 | 0.201 | 0.237 | 0.275 | 0.316 | 0.356 | 0.402
x2 = 0.1139 | 0.129 | 0.168 | 0.215 | 0.266 | 0.321 | 0.38 | 0.439 | 0.503 | 0.567 | 0.64
x2 = 0.1666 | 0.19 | 0.245 | 0.313 | 0.387 | 0.466 | 0.551 | 0.638 | 0.729 | 0.824 | 0.93
x2 = 0.2307 | 0.242 | 0.315 | 0.4 | 0.503 | 0.609 | 0.724 | 0.84 | 0.962 | 1.09 | 1.24
x2 = 0.3103 | 0.31 | 0.394 | 0.503 | 0.621 | 0.753 | 0.893 | 1.05 | 1.2 | 1.38 | 1.57
x2 = 0.4117 | 0.355 | 0.459 | 0.585 | 0.73 | 0.887 | 1.06 | 1.23 | 1.42 | 1.61 | 1.85
x2 = 0.5454 | 0.393 | 0.507 | 0.645 | 0.808 | 0.982 | 1.18 | 1.38 | 1.58 | 1.83 | 2.1
x2 = 0.7297 | 0.411 | 0.529 | 0.672 | 0.836 | 1.02 | 1.23 | 1.45 | 1.67 | 1.93 | 2.26

CC(N)C(=O)O (stereo not drawn) + O + CC(C)O
solubility (g/100 g solution)
Details | x2 = 0.1 | x2 = 0.2 | x2 = 0.3 | x2 = 0.4 | x2 = 0.5 | x2 = 0.6 | x2 = 0.7 | x2 = 0.8 | x2 = 0.9
283.15 K | 0.0186 | 0.0381 | 0.0478 | 0.104 | 0.185 | 0.376 | 0.772 | 1.58 | 3.5
293.15 K | 0.0303 | 0.046 | 0.0604 | 0.124 | 0.223 | 0.459 | 1.01 | 2.08 | 4.48
303.15 K | 0.0379 | 0.0557 | 0.0726 | 0.143 | 0.267 | 0.552 | 1.25 | 2.62 | 5.51
313.15 K | 0.0427 | 0.0643 | 0.0784 | 0.158 | 0.316 | 0.704 | 1.55 | 3.3 | 6.91
323.15 K | 0.0448 | 0.0801 | 0.113 | 0.167 | 0.372 | 0.842 | 1.85 | 4.04 | 8.23
